In ChEMBL document CHEMBL1201862, “PubChem BioAssay data set” (2004):
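Briefly, cells in 96-well plates were exposed to five compound concentrations for 48 h, and endpoints were estimated by linear interpolation. GI50: concentration for 50% inhibition of growth.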 Calls of active or inactive are those of the source. No stated cut-off is given here; in the data, active = GI50 up to about 1.1 µM and inactive = higher.

Legend:
Assay in all cases: NCI-60 cell line screen, 48 h
786-0 = system: 786-0
A498 = system: A498
A549 = system: A549
ACHN = system: ACHN
CAKI-1 = system: CAKI-1
CCRF-CEM = system: CCRF-CEM
COLO 205 = system: COLO 205
DLD-1 = system: DLD-1
DMS-114 = system: DMS-114
DMS-273 = system: DMS-273
HCC 2998 = system: HCC 2998
HCT-116 = system: HCT-116
HCT-15 = system: HCT-15
HOP-18 = system: HOP-18
HOP-62 = system: HOP-62
HT-29 = system: HT-29
IGROV-1 = system: IGROV-1
K562 = system: K562
KM-20L2 = system: KM-20L2
KM12 = system: KM12
LOX IMVI = system: LOX IMVI
LXFL 529 = system: LXFL 529
M14 = system: M14
M19-MEL = system: M19-MEL
MOLT-4 = system: MOLT-4
Malme-3M = system: Malme-3M
NCI-H226 = system: NCI-H226
NCI-H23 = system: NCI-H23
NCI-H460 = system: NCI-H460
NCI-H522 = system: NCI-H522
OVCAR-3 = system: OVCAR-3
OVCAR-4 = system: OVCAR-4
OVCAR-5 = system: OVCAR-5
OVCAR-8 = system: OVCAR-8
RPMI-8226 = system: RPMI-8226
RXF 393 = system: RXF 393
SF-268 = system: SF-268
SF-295 = system: SF-295
SF-539 = system: SF-539
SK-MEL-28 = system: SK-MEL-28
SK-MEL-2 = system: SK-MEL-2
SK-MEL-5 = system: SK-MEL-5
SN12C = system: SN12C
SNB-19 = system: SNB-19
SNB-75 = system: SNB-75
SR = system: SR
SW-620 = system: SW-620
TK-10 = system: TK-10
U-251 = system: U-251
UACC-257 = system: UACC-257
UACC-62 = system: UACC-62
UO-31 = system: UO-31
XF498 = system: XF498
EKVX = system: EKVX
SK-OV-3 = system: SK-OV-3
SNB-78 = system: SNB-78

CCCCCCCCCCCC(=O)OCC1OC(OC)C(NC(=O)N(CCCl)N=O)C(O)C1O (centres undefined)
GI50 (786-0): 0.621 µM (active)
GI50 (A498): 18.7 µM (inactive)
GI50 (A549): 12.5 µM (inactive)
GI50 (ACHN): 10.6 µM (inactive)
GI50 (CAKI-1): > 100 µM (inactive)
GI50 (CCRF-CEM): 0.516 µM (active)
GI50 (COLO 205): 21.9 µM (inactive)
GI50 (DLD-1): 17.5 µM (inactive)
GI50 (DMS-114): 16.6 µM (inactive)
GI50 (DMS-273): 11.2 µM (inactive)
GI50 (HCC 2998): 14.4 µM (inactive)
GI50 (HCT-116): 13.2 µM (inactive)
GI50 (HCT-15): 27.2 µM
GI50 (HOP-18): 34.3 µM (inactive)
GI50 (HOP-62): 18.7 µM (inactive)
GI50 (HT-29): 16.9 µM (inactive)
GI50 (IGROV-1): 29.7 µM (inactive)
GI50 (K562): 10.3 µM (inactive)
GI50 (KM-20L2): 17 µM (inactive)
GI50 (KM12): 17.3 µM (inactive)
GI50 (LOX IMVI): 6.27 µM (inactive)
GI50 (LXFL 529): 12.6 µM (inactive)
GI50 (M14): 11.1 µM (inactive)
GI50 (M19-MEL): 38.8 µM (inactive)
GI50 (MOLT-4): 1.69 µM (inactive)
GI50 (Malme-3M): 12.2 µM (inactive)
GI50 (NCI-H226): 23 µM (inactive)
GI50 (NCI-H23): > 10 µM (inactive)
GI50 (NCI-H460): 5.22 µM (inactive)
GI50 (NCI-H522): 10.3 µM (inactive)
GI50 (OVCAR-3): 16.3 µM (inactive)
GI50 (OVCAR-4): 17.8 µM (inactive)
GI50 (OVCAR-5): 20.4 µM (inactive)
GI50 (OVCAR-8): 19.3 µM (inactive)
GI50 (RPMI-8226): 7.5 µM (inactive)
GI50 (RXF 393): 13.3 µM (inactive)
GI50 (SF-268): 2.32 µM (inactive)
GI50 (SF-295): 8.24 µM (inactive)
GI50 (SF-539): 2.96 µM (inactive)
GI50 (SK-MEL-28): 15.8 µM (inactive)
GI50 (SK-MEL-2): 26.3 µM (inactive)
GI50 (SK-MEL-5): 13.1 µM (inactive)
GI50 (SN12C): 11.6 µM (inactive)
GI50 (SNB-19): 10.1 µM (inactive)
GI50 (SNB-75): 14.1 µM (inactive)
GI50 (SR): 2.79 µM (inactive)
GI50 (SW-620): 4.27 µM (inactive)
GI50 (TK-10): 25.7 µM (inactive)
GI50 (U-251): 7.06 µM (inactive)
GI50 (UACC-257): 14.3 µM (inactive)
GI50 (UACC-62): 1.33 µM (inactive)
GI50 (UO-31): 16.7 µM (inactive)
GI50 (XF498): 12.4 µM (inactive)

O=C1CCN2CCC(=O)c3c2c(cc2ccccc32)N1
GI50 (786-0): > 100 µM (inactive)
GI50 (A498): > 100 µM (inactive)
GI50 (A549): > 100 µM (inactive)
GI50 (ACHN): > 100 µM (inactive)
GI50 (CAKI-1): > 100 µM (inactive)
GI50 (CCRF-CEM): > 100 µM (inactive)
GI50 (COLO 205): > 100 µM (inactive)
GI50 (DLD-1): > 100 µM (inactive)
GI50 (DMS-114): > 100 µM (inactive)
GI50 (DMS-273): > 100 µM (inactive)
GI50 (EKVX): > 100 µM (inactive)
GI50 (HCC 2998): > 100 µM (inactive)
GI50 (HCT-116): > 100 µM (inactive)
GI50 (HCT-15): > 100 µM
GI50 (HOP-62): > 100 µM (inactive)
GI50 (HT-29): > 100 µM (inactive)
GI50 (IGROV-1): > 100 µM (inactive)
GI50 (K562): > 100 µM (inactive)
GI50 (KM-20L2): > 100 µM (inactive)
GI50 (KM12): > 100 µM (inactive)
GI50 (LOX IMVI): > 100 µM (inactive)
GI50 (LXFL 529): > 100 µM (inactive)
GI50 (M14): > 100 µM (inactive)
GI50 (M19-MEL): > 100 µM (inactive)
GI50 (MOLT-4): > 100 µM (inactive)
GI50 (Malme-3M): > 100 µM (inactive)
GI50 (NCI-H226): > 100 µM (inactive)
GI50 (NCI-H460): > 100 µM (inactive)
GI50 (NCI-H522): > 100 µM (inactive)
GI50 (OVCAR-3): > 100 µM (inactive)
GI50 (OVCAR-5): > 100 µM (inactive)
GI50 (OVCAR-8): > 100 µM (inactive)
GI50 (RPMI-8226): > 100 µM (inactive)
GI50 (RXF 393): 44.7 µM (inactive)
GI50 (SF-268): > 100 µM (inactive)
GI50 (SF-295): > 100 µM (inactive)
GI50 (SF-539): > 100 µM (inactive)
GI50 (SK-MEL-2): > 100 µM (inactive)
GI50 (SK-MEL-5): > 100 µM (inactive)
GI50 (SK-OV-3): > 100 µM (inactive)
GI50 (SN12C): > 100 µM (inactive)
GI50 (SNB-19): > 100 µM (inactive)
GI50 (SNB-75): > 100 µM (inactive)
GI50 (SNB-78): > 100 µM (inactive)
GI50 (SW-620): > 100 µM (inactive)
GI50 (TK-10): > 100 µM (inactive)
GI50 (U-251): > 100 µM (inactive)
GI50 (UACC-257): > 100 µM (inactive)
GI50 (UACC-62): > 100 µM (inactive)
GI50 (UO-31): 75.5 µM (inactive)
GI50 (XF498): 26.8 µM (inactive)
